Test results: ChEMBL document CHEMBL1131859, “Conformationally restricted paclitaxel analogues: macrocyclic mimics of the "hydrophobic collapse" conformation” (1999)
Activity calls are given as the source filed them. The calls are words filed in the database; no cut-off is given here.

Columns and labels:
[1] = system: B16; assay: Tested for cytotoxicity against B16 melanoma cells expressed as the ED50 to that of ED50 of paclitaxel; In active; assay type: functional, cell-based; details: Mus musculus
[2] = Tested for activity using microtubule assembly assay expressed as the ED50 to that of ED50 of paclitaxel; In active; assay type: functional
[3] = system: B16; assay: Tested for cytotoxicity against B16 melanoma cells expressed as the ED50 to that of ED50 of paclitaxel.; assay type: functional, Mus musculus
[4] = Tested for activity using microtubule assembly assay expressed as the ED50 to that of ED50 of paclitaxel.; assay type: functional
[5] = Inhibitory activity against microtubule assembly stimulated by paclitaxel (1 uM) at a concentration of 20 uM of the compound; No inhibition; assay type: functional

CC(=O)O[C@H]1C(=O)[C@@]2(C)[C@H]([C@H](OC(=O)c3ccccc3)[C@]3(O)CC(OC(=O)/C=C(\NC(=O)c4ccccc4)c4cccc(I)c4)C(C)=C1C3(C)C)[C@]1(OC(C)=O)CO[C@@H]1C[C@@H]2O (stereo not given in full)
Ratio [1]: inactive | Ratio [2]: inactive

CC(=O)O[C@H]1C(=O)[C@@]2(C)[C@H]([C@H](OC(=O)c3ccccc3)[C@]3(O)CC(OC(=O)[C@H](O[Si](C)(C)C(C)(C)C)[C@@H](NC(=O)c4ccccc4)c4cccc(I)c4)C(C)=C1C3(C)C)[C@]1(OC(C)=O)CO[C@@H]1C[C@@H]2O (stereo not given in full)
Ratio [3]: 27 | Ratio [4]: 4.6

CC(=O)O[C@H]1C(=O)[C@@]2(C)[C@H]([C@@H]3OC(=O)c4cccc(c4)/C=C\c4ccccc4[C@H](NC(=O)c4ccccc4)[C@@H](O)C(=O)OC4C[C@]3(O)C(C)(C)C1=C4C)[C@]1(OC(C)=O)CO[C@@H]1C[C@@H]2O
Ratio [5]: inactive
